{
  "source": "patent US20150110716A1",
  "about": "“METHODS OF USING SPECT/CT ANALYSIS FOR STAGING CANCER” (Molecular Insight Pharmaceuticals, Inc., priority 2013, published 2015)",
  "assay": "Phase 1 cross-over study: pharmacokinetics, biodistribution, dosimetry, excretion",
  "format": "in vivo, human",
  "from_the_text": "Pharmacokinetics, Biodistribution, Dosimetry, Metabolism & Excretion of compound represented by Formula (1) and Formula (2). Methods: Fourteen subjects (7 metastatic prostate cancer patients and 7 healthy, normal males) were enrolled in a phase 1, single-blind, randomized, cross-over study in which subjects were randomly administered a single dose (740 MBq; 20 mCi) of a compound represented by Formula (1) and a similar chemical analog, a compound represented by Formula (2), 14 days apart. […] (FIGS. 1 and 2A)",
  "data": [
    {"substance": "(OC-6-33)-tricarbonyl[N^2-{[(1S)-1,3-dicarboxypropyl]amino]carbamoyl}-L-γ-glutamyl-N^6,N^6-bis[(1-{2-[bis(carboxymethyl)amino]-2-oxoethyl]-1H-imidazol-2-yl-κN^3]methyl]-L-lysine-κN^6](^99mTc)(+)chloride [Formula (1)]", "values": [
      {"measurement": "gamma radiation signal in scintigraphic images", "setting": "24 hour time point, liver, kidney, urinary bladder, prostate, lacrimal and salivary glands", "result": "near complete loss of gamma radiation signal"},
      {"measurement": "period over which compound is cleared from blood", "setting": "FIG. 1A", "result": "about 1500 minutes"},
      {"measurement": "uptake in liver and kidney tissue", "setting": "Formula (1) compared with Formula (2)", "result": "greater"},
      {"measurement": "percent intensity of signal detected as a function of drug administered", "setting": "Formula (1) compared with Formula (2), every time point", "result": "greater"},
      {"measurement": "accumulation in the urinary bladder", "setting": "in vivo", "result": "minimal accumulation"},
      {"measurement": "tissues of accumulation", "setting": "in vivo pharmacokinetic and biodistribution studies", "result": "liver, kidneys and salivary glands as well as the urinary bladder and prostate tissue"},
      {"measurement": "estimated radiation dose (dosimetry)", "setting": "single dose 740 MBq (20 mCi)", "result": "within the clinically acceptable range"}
    ]}
  ]
}
